According to patent publication US12600714B2, “Substituted pyrazinecarboxamide compounds for treating diseases related to EGFR mutation” (WIGEN BIOMEDICINE TECHNOLOGY (SHANGHAI) CO., LTD., priority 2020, dated 2026):

Key:
[1] = target: Ba/F3 (EGFR^del19/T790M/C797S) triple-mutant cells (Homo sapiens, UniProt P00533, T790M/C797S, cells depend on it, form not given); experiment: Antiproliferative activity against Ba/F3 (EGFR del19/T790M/C797S) triple-mutant cells, Cell Titer Glow; type: cell-based; details: three days after addition of compounds; read-out: Antiproliferative activity BaF3(EGFR^del19/T790M/C797S) IC50
Protocol: (§1) Antiproliferative Activity of the Compounds Disclosed Herein Against Ba/F3 (EGFR^del19/T790M/C797S) Triple-Mutant Cells and A431 (EGFR WT) Cells
(§2) • 3000 Ba/F3 cells carrying EGFR (del19/T790M/C797S) or 2000 A431 cells were seeded in a 384-well plate. After one day, serially diluted compounds were added (up to 500 nM for Ba/F3 cells and up to 10 μM for A431 cells). Three days after the addition of the compounds, Cell Titer Glow was added to evaluate cell growth and the percentage cell growth inhibition by the compounds and the IC50 values were calculated.

EGFR (del19/T790M/C797S) = experiment: HTRF inhibitory activity assay against EGFR (del19/T790M/C797S) enzyme; type: biochemical
Method in brief: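 Wild-type or mutant EGFR preincubated with serially diluted compound 10 min at 28 °C, then reacted 40 min at room temperature with biotinylated TK substrate and ATP. Phosphorylation detected by HTRF (Eu-cryptate anti-TK antibody, streptavidin-XL665, 60 min), 665/615 nm ratio; % inhibition and IC50 vs control.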

EGFR (WT) = EGFR (WT) (Homo sapiens, UniProt P00533); experiment: HTRF inhibitory activity assay against EGFR (WT) enzyme; type: biochemical
Protocol: (§3) Inhibitory Activity Assay of the Compounds Disclosed Herein Against EGFR (del19/T790M/C797S), EGFR (L858R/T790M/C797S) or EGFR (WT) Enzymes
(§4) The inhibitory effects of the compounds against EGFR (del19/T790M/C797S), EGFR (L858R/T790M/C797S) or EGFR (WT) enzyme activity was determined by using HTRF. The procedures are as follows:
(§5) The WT or mutant EGFR proteins were incubated with a serially diluted compounds at 28° C. for 10 min followed by addition of biotin-labeled general tyrosine kinase (TK) substrate and ATP. The mixture was incubated at room temperature for 40 min for reaction. After the termination of the reaction, an Eu3+-Cryptate-labeled antibody against TK and streptavidin-XL665 were added and the mixture was incubated at room temperature for 60 min. The luminescences at 615 nm and 665 nm were detected and the ratio of 665/615 was calculated to quantify the level of TK substrate phosphorylation. Inhibition % and IC50 of the compounds were calculated relative to the control group.

A431 (EGFR WT) cells = experiment: Antiproliferative activity against A431 (EGFR WT) cells, Cell Titer Glow; type: cell-based; details: Homo sapiens, A-431, 72 h; three days after addition of compounds; read-out: Antiproliferative activity A431 wild-type (WT) IC50
Protocol: as §1, §2

EGFR (L858R/T790M/C797S) = EGFR (L858R/T790M/C797S) (Homo sapiens, UniProt P00533, C797S/L858R/T790M); experiment: HTRF inhibitory activity assay against EGFR (L858R/T790M/C797S) enzyme; type: biochemical; details: read-out: EGFR (L858R/T790M/C797S) inhibition (%) (0.3 nM compound)
Protocol: as §3, §4, §5

[2] = system: H1975 cells carrying EGFR T790M mutation; experiment: In vivo pharmacodynamic study, mouse H1975 subcutaneous xenograft tumor model; set-up: species or system BALB/c nude mice; details: intragastric once daily, day 28, H1975 xenograft
Protocol: In Vivo Pharmacodynamic Study—Mouse H1975 Subcutaneous Xenograft Tumor Model
(§6) BALB/c nude mice were grafted subcutaneously on the left dorsum with 5×10^6 H1975 cells carrying EGFR T790M mutation. After the tumor grew to 100-150 mm^3, the mice were randomly divided into the following groups for intragastric administration once daily: group 1: vehicle control; group 2: compound 511 (60 mg/kg); and group 3: compound 511 (80 mg/kg). The tumor volume was measured twice weekly and at the end of treatment. Tumor growth inhibition of the compound was calculated according to the following equation: tumor growth inhibition (TGI)=1−(tumor volume on day 28 in treatment group−tumor volume on day 1 in treatment group)/(tumor volume on day 28 in vehicle control group−tumor volume on day 1 in treatment group).

[3] = system: PC9 cells with EGFR Del19/T790M/C797S overexpression; experiment: In vivo pharmacodynamic study, mouse PC9 (EGFR Del19/T790M/C797S) subcutaneous xenograft tumor model; set-up: species or system BALB/c nude mice; details: intragastric once daily, day 28, PC9 (EGFR Del19/T790M/C797S) xenograft
Protocol: In Vivo Pharmacodynamic Study—Mouse PC9(EGFR Del19/T790M/C797S) Subcutaneous Xenograft Tumor Model
as §6, with “PC9” for “H1975”, “with” for “carrying”, “Del19/T790M/C797S overexpression.” for “T790M mutation.”

Chain of EGFR (WT) (P00533 25-1210): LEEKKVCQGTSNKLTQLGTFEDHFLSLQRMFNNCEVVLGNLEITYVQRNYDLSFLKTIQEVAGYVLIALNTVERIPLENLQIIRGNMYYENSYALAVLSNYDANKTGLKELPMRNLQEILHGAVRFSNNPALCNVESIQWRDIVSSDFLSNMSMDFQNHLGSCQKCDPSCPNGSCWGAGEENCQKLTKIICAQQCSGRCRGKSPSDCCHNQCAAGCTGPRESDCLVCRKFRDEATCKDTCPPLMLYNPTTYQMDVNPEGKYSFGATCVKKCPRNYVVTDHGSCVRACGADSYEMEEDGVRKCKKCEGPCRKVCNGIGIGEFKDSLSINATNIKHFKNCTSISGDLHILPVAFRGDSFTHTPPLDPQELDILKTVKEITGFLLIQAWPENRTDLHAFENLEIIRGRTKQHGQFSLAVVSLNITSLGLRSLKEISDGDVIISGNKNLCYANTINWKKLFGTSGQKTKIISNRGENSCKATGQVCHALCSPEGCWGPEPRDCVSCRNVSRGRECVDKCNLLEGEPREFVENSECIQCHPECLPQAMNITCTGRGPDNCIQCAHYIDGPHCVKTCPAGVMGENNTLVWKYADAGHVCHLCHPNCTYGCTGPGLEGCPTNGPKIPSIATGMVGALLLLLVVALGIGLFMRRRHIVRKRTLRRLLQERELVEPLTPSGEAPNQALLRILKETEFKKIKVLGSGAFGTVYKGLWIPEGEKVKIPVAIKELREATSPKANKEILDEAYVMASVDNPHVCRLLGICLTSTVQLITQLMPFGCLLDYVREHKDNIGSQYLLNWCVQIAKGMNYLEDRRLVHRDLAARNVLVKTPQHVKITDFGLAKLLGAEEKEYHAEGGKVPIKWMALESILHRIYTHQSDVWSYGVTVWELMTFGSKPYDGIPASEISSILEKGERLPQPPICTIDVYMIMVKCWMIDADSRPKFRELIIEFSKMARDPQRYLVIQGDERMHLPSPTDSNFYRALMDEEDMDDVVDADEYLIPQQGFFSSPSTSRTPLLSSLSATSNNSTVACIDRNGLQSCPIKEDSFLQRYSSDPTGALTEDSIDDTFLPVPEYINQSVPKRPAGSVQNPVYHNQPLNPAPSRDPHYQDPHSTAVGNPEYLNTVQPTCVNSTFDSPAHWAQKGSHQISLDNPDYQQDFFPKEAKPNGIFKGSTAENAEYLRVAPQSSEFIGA
Chain of Ba/F3 (EGFR^del19/T790M/C797S) triple-mutant cells (P00533 with tags, fused parts or gaps DEL746-750/T790M/C797S, form open): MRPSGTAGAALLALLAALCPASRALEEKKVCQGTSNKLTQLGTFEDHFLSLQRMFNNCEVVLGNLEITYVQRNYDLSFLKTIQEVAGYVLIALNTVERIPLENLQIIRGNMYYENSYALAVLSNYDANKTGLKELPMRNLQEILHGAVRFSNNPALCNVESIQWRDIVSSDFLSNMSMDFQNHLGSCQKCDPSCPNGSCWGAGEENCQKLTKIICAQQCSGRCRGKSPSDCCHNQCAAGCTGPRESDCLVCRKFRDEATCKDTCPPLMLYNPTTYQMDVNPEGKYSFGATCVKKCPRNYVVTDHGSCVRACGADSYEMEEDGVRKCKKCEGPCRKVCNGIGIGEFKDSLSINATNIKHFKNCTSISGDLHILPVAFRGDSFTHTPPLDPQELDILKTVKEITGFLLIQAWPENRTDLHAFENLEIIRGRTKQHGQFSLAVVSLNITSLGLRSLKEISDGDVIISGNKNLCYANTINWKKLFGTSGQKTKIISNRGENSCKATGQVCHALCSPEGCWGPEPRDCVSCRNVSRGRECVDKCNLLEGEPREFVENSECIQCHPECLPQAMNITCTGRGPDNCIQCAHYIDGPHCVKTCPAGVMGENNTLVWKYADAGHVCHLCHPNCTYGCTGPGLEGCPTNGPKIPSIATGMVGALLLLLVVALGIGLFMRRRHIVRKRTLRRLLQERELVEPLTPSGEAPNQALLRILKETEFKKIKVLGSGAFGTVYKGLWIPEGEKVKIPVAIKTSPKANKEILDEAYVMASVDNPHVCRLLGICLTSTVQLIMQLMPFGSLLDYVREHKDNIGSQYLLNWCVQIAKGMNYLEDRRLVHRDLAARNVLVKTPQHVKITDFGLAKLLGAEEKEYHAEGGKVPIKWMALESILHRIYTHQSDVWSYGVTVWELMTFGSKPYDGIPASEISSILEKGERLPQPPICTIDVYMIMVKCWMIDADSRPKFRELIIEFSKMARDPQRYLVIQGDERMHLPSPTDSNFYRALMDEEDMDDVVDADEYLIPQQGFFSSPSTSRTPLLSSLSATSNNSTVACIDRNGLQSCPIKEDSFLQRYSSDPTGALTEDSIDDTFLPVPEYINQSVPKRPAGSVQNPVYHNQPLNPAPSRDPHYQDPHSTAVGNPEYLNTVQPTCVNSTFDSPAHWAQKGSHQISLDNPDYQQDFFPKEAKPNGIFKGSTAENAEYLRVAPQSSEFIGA
Chain of EGFR (L858R/T790M/C797S) (P00533 25-1210 T790M/C797S/L858R): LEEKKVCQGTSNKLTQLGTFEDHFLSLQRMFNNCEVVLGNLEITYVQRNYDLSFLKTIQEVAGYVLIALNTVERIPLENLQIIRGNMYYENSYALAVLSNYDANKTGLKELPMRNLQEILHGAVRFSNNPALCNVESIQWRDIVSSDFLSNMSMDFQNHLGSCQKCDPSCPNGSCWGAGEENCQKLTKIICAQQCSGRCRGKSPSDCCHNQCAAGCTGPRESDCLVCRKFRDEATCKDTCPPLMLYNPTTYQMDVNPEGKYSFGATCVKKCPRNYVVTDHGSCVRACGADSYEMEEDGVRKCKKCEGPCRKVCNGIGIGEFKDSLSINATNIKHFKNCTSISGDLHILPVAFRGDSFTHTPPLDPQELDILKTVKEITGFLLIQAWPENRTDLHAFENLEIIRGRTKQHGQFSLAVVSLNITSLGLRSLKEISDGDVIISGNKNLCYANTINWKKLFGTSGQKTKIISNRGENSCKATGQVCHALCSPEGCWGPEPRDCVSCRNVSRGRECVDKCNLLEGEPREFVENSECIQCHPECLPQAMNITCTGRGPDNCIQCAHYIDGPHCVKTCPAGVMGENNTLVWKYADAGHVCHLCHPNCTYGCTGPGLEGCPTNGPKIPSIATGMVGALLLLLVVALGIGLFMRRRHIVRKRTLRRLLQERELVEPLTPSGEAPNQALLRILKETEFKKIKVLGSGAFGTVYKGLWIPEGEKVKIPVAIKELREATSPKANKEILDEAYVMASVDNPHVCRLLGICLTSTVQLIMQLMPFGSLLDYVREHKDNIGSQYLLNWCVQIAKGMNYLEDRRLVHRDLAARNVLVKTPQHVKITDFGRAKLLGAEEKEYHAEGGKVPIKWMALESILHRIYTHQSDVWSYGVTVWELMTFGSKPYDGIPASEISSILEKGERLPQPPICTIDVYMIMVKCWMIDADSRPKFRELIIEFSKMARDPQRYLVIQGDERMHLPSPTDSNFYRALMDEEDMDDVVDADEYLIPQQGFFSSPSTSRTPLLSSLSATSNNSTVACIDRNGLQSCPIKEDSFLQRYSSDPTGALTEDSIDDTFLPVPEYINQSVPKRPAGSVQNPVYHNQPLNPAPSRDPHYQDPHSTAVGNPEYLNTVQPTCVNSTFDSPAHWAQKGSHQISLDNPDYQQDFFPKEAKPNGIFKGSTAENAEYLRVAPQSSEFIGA

Row | Compound | GI50 [1] | EGFR (del19/T790M/C797S) inhibition (%) (0.3 nM compound) (EGFR (del19/T790M/C797S)) | IC50 (EGFR (WT)) | IC50 (A431 (EGFR WT) cells) | inhibition at 0.0003 µM (EGFR (L858R/T790M/C797S)) | TGI (tumor growth inhibition) ([2]; 60 mg/kg) | TGI (tumor growth inhibition) ([2]; 80 mg/kg) | TGI (tumor growth inhibition) ([3]; 60 mg/kg) | TGI (tumor growth inhibition) ([3]; 80 mg/kg)
1 | CN1CCN(C2CCN(c3ccc(Nc4nc(NC5CCOCC5)c(-c5ccccc5)nc4C(N)=O)cc3)CC2)CC1 [compound 1] | 236 nM | + (+ indicates an inhibition less than or equal to 20%) | > 300 nM | 2500 nM | ≤ 20% |  |  |  | 
2 | CN1CCC(Oc2nc(Nc3ccc(N4CCC(N5CCN(C)CC5)CC4)cc3)c(C(N)=O)nc2-c2ccccc2)CC1 [compound 4] | 295 nM | + (+ indicates an inhibition less than or equal to 20%) | > 100 nM | 1700 nM | ≤ 20% |  |  |  | 
3 | CN1CCN(C2CCN(c3ccc(Nc4nc(Nc5ccccc5)c(-c5ccccc5)nc4C(N)=O)cc3)CC2)CC1 [compound 5] |  | + (+ indicates an inhibition less than or equal to 20%) | > 100 nM |  | ≤ 20% |  |  |  | 
4 | CN1CCN(C2CCN(c3ccc(Nc4nc(NC5CCOCC5)c(-c5ccncc5)nc4C(N)=O)cc3)CC2)CC1 [compound 39, 3-((4-(4-(4-methylpiperazin-1-yl)piperidin-1-yl)phenyl)amino)-6-(pyridin-4-yl)-5-((tetrahydro-2H-pyran-4-yl)amino)pyrazine-2-carboxamide] | 29 nM | +++ (+++ indicates an inhibition greater than 50%.) | > 300 nM | 340 nM | > 50% |  |  |  | 
5 | CN1CCN(C2CCN(c3ccc(Nc4nc(NC5CCOCC5)c(-c5cc[nH]n5)nc4C(N)=O)cc3)CC2)CC1 [compound 55, 3-((4-(4-(4-methylpiperazin-1-yl)piperidin-1-yl)phenyl)amino)-6-(1H-pyrazol-3-yl)-5-((tetrahydro-2H-pyran-4-yl)amino)pyrazine-2-carboxamide] | 16 nM | +++ (+++ indicates an inhibition greater than 50%.) | > 300 nM | 70 nM | ≤ 20% |  |  |  | 
6 | CN1CCN(C2CCN(c3ccc(Nc4nc(NC5CCOCC5)c(-c5cn[nH]c5)nc4C(N)=O)cc3)CC2)CC1 [compound 57] | 79 nM | ++ (++ indicates an inhibition from 20% to 50%) | > 300 nM | 320 nM | 20 to 50% |  |  |  | 
7 | CN(C)C1CCN(c2ccc(Nc3nc(NC4CCOCC4)c(-c4ccccc4)nc3C(N)=O)cc2)CC1 [compound 59] | 72 nM | + (+ indicates an inhibition less than or equal to 20%) | > 300 nM | 1400 nM |  |  |  |  | 
8 | CCc1cc(Nc2nc(NC3CC4(COC4)C3)c(-c3cc[nH]n3)nc2C(N)=O)ccc1N1CCC(N2CCN(C)CC2)CC1 [compound 503] | 61 nM | +++ (+++ indicates an inhibition greater than 50%.) | 10.2 nM | 660 nM | ≤ 20% |  |  |  | 
9 | CN1CCN(C2CCN(c3ccc(Nc4nc(NC5CCOCC5)c(-c5cccc6[nH]ccc56)nc4C(N)=O)cc3)CC2)CC1 [compound 511, 6-(1H-indol-4-yl)-3-((4-(4-(4-methylpiperazin-1-yl)piperidin-1-yl)phenyl)amino)-5-((tetrahydro-2H-pyran-4-yl)amino)pyrazine-2-carboxamide] | 9 nM | +++ (+++ indicates an inhibition greater than 50%.) | 2.82 nM | 60 nM | > 50% | 99% | 104% | 87.41% | 93.17%
10 | CC(C)Nc1nc(Nc2ccc(N3CCC(N4CCN(C)CC4)CC3)cc2)c(C(N)=O)nc1-c1cccc2[nH]ccc12 [compound 521] | 4 nM | +++ (+++ indicates an inhibition greater than 50%.) | 0.27 nM | 50 nM | > 50% |  |  |  | 
11 | CN1CCN(C2CCN(c3ccc(Nc4nc(NC5CC5)c(-c5cccc6[nH]ccc56)nc4C(N)=O)cc3)CC2)CC1 [compound 522] | 2 nM | +++ (+++ indicates an inhibition greater than 50%.) | 0.22 nM | 30 nM | > 50% |  |  |  | 
12 | CN1CCN(C2CCN(c3ccc(Nc4nc(N[C@H]5CC[C@H](O)CC5)c(-c5cccc6[nH]ccc56)nc4C(N)=O)cc3)CC2)CC1 [compound 526] | 5 nM | +++ (+++ indicates an inhibition greater than 50%.) | 0.33 nM | 100 nM | > 50% |  |  |  | 
13 | CN1CCN(C2CCN(c3ccc(Nc4nc(NC5CC6(COC6)C5)c(-c5cccc6[nH]ccc56)nc4C(N)=O)cc3)CC2)CC1 [compound 527] | 4 nM | +++ (+++ indicates an inhibition greater than 50%.) | 1.7 nM | 100 nM | > 50% |  |  |  | 
